{"source": "patent US20250325529A1", "about": "“INHIBITORS OF FATTY ACID BINDING PROTEINS (FABPs), METHODS OF USE AND METHODS OF MAKING” (Celloram, inc., priority 2024, published 2025)", "key": {"[1]": {"tested_on": "NOD mouse model of autoimmune type 1 diabetes", "assay": "NOD mouse model of autoimmune type 1 diabetes", "assay_type": "in vivo, NOD/ShiLtJ mice", "settings": "female NOD mice", "protocol": "Female NOD/ShiLtJ mice were purchased from Jackson's lab at age of 7 weeks. Mice were housed in a temperature-controlled facility (23° C., 12-h light/dark cycle). Weekly non-fasting blood glucose concentrations were measured in the morning by tail vein prick starting at 8 weeks of age by using a blood glucose test meter (OTUltra2 system, Lifescam, USA) and strips according to manufacturer's instruction. Any reading of blood glucose higher than 200 mg/dL was confirmed by another test 24 hours later. Diabetes was diagnosed by 2 consensus positive blood glucose tests higher than 200 mg/dL. At 13 weeks of age, mice were divided into 3 treatments groups (n=15/group) as followed: 1) control group, treated with vehicle (0.5% methyl cellulose, 1% Tween 80); 2) PD152 treated group (40 mg/Kg in vehicle); 3) anti-CD3 treated group (5 μg/mouse, in PBS). Groups 1 and 2 were treated by gavage 5 days a week throughout the duration of the experiment. Group 3 was treated by IV injection for only 5 consecutive days. Mice were sacrificed at the age of 27 weeks.\nNOD mouse model of autoimmune type 1 diabetes was used to test the efficacy of FABP4/5 inhibitor PD152 on spontaneous development of the disease. […] Blood glucose levels were measured weekly for monitoring the incidence of diabetes until termination at 27 weeks of age. […]"}, "[2]": {"tested_on": "Salmonella typhimurium tester strains TA98, TA100, TA1535, TA1537 and Escherichia coli tester strain WP2 uvrA (pKM101)", "assay": "Ames test, overall conclusion for the tested strains", "assay_type": "cell-based", "settings": "presence and absence of S9", "protocol": "(§1) PD152 (compound 2) was tested for genotoxic and cytotoxic side effects by Ames test. The Ames test is a Bacterial Reverse Mutation Test of mutagenicity that utilizes Salmonella typhimurium tester strains TA98, TA100, TA1535, TA1537 and Escherichia coli tester strain WP2 uvrA (pKM101), both in the presence and absence of S9.\n(§2) The compound PD152 was tested at 10 concentrations (0.032-1000 μg/plate) in the presence of, or absence of, the hepatic enzyme S9.\nThe aniline FABP4/5 inhibitor compound, 2-((2-((2,4-dichloro-5-isopropoxyphenyl)amino)-2-oxoethyl)thio)-2-methylpropanoic acid (compound “B104” as disclosed in WO2023043803A1) also was tested for genotoxic and cytotoxic side effects by Ames test. B104 was tested using the Salmonella typhimurium tester stains TA98, TA100, TA1535, and TA1537, both in the presence and absence of the hepatic enzyme S9, at 5 concentrations (1.5-64 μg/plate)."}, "[3]": {"tested_on": "normal human mammary epithelial cells (HMEC)", "assay": "Proliferation assay (Incucyte confluency), HMEC", "assay_type": "cell-based", "protocol": "(§3) COS-7, MDA-MB-231, and HepG2, were cultured in Dulbecco's modified Eagle's medium (DMEM) supplemented with 10% fetal bovine serum (Invitrogen Life Sciences, Carlsbad, CA). BT-549, OVCAR5 and OVCAR8 cells were cultured in L-Glutamine containing RPMI medium supplemented with 10% fetal calf serum (Invitrogen Life Sciences, Carlsbad, CA). The primary Human Mammary Epithelial Cells (HMEC) were cultured in mammary epithelial cell complete medium (basal medium plus rH-Insulin (5 μg/mL); L-Glutamine (6 mM); Epinephrine (1 μM); Apo-Transferrin (5 μg/mL); rH-TGF-α (0.5 ng/mL); ExtractP (0.4%); Hydrocortisone Hemisuccinate (100 ng/mL)).\n(§4) 2000 cells were plated in each well of 96-well plate. The next day cells were treated with compounds and incubated in Incucyte for 4 days. Images taken every 4 hours for the duration of the time were analyzed to calculate percentage of confluency in response to the treatments. Growth inhibition was calculated as 1—(percentage of viable cells out of untreated cells)."}, "[4]": {"tested_on": "OVCAR8 cells", "assay": "Proliferation assay (Incucyte confluency), OVCAR8", "assay_type": "cell-based", "settings": "Homo sapiens, OVCAR-8, 96 h, 4 days, read-out: IC50, inhibition of OVCAR8 proliferation", "protocol": "as §3, §4"}, "[5]": {"tested_on": "Salmonella typhimurium tester strain TA98", "assay": "Ames test (Bacterial Reverse Mutation Test), TA98", "assay_type": "cell-based", "protocol": "as §1, §2\nThe aniline FABP4/5 inhibitor compound, 2-((2-((2,4-dichloro-5-isopropoxyphenyl)amino)-2-oxoethyl)thio)-2-methylpropanoic acid (compound “B104” as disclosed in WO2023043803A1) also was tested for genotoxic and cytotoxic side effects by Ames test. […]"}, "[6]": {"tested_on": "BT-549 cells", "assay": "Proliferation assay (Incucyte confluency), BT-549", "assay_type": "cell-based", "settings": "Homo sapiens, 96 h, 4 days, read-out: IC50, inhibition of proliferation", "protocol": "as §3, §4"}, "[7]": {"settings": "TA98, presence of S9, 0.0312 μg/plate"}, "[8]": {"settings": "TA98, presence of S9, 0.1 μg/plate"}, "[9]": {"settings": "TA98, presence of S9, 0.316 μg/plate"}, "[10]": {"settings": "TA98, presence of S9, 1 μg/plate"}, "[11]": {"settings": "TA98, presence of S9, 3.16 μg/plate"}, "[12]": {"settings": "TA98, presence of S9, 10 μg/plate"}, "[13]": {"settings": "TA98, presence of S9, 31.6 μg/plate"}, "[14]": {"settings": "TA98, presence of S9, 100 μg/plate"}, "[15]": {"settings": "TA98, presence of S9, 316 μg/plate"}, "[16]": {"settings": "TA98, presence of S9, 1000 μg/plate"}}}
{"smiles": "CC(C)Oc1nc(NC(=O)CSCC(=O)O)c(Cl)cc1Cl", "note": "[PD152, 2-((2-((3,5-dichloro-6-isopropoxypyridin-2-yl)amino)-2-oxoethyl)thio)acetic acid]", "values": [{"measurement": "Diabetes incidence", "setting": "[1]; 40 mg/Kg by gavage 5 days a week from 13 weeks, by 27 weeks of age", "result": 46.7, "unit": "%"}, {"measurement": "Lower blood glucose levels, difference to control", "setting": "[1]; at 27 weeks of age", "result": "about 2 fold"}, {"measurement": "Cytotoxicity to the tested strains", "setting": "[2]", "result": "non-cytotoxic"}, {"measurement": "Mutagenicity in the Ames test", "setting": "[2]", "result": "non-mutagenic"}, {"measurement": "Concentrations at which proliferation of HMEC cells was inhibited", "setting": "[3]; HMEC cells, 4 days", "result": "> 125", "unit": "µM"}, {"measurement": "IC50", "setting": "[3]; Homo sapiens, 96 h, HMEC cells, 4 days, read-out: IC50, inhibition of proliferation", "result": 319000, "unit": "nM"}, {"measurement": "Fold lower efficacy in HMEC than in BT-549 cells", "setting": "[3]; IC50 HMEC vs BT-549", "result": 305, "unit": "fold"}, {"measurement": "Fold lower efficacy in HMEC than in MB-231 cells", "setting": "[3]; IC50 HMEC vs MB-231", "result": 532, "unit": "fold"}, {"measurement": "IC50", "setting": "[4]", "result": 665, "unit": "nM"}, {"measurement": "Fold increase", "setting": "[5]; [7]", "result": 1}, {"measurement": "Mean number of revertants", "setting": "[5]; [7]", "result": 6}, {"measurement": "Fold increase", "setting": "[5]; [8]", "result": 1}, {"measurement": "Mean number of revertants", "setting": "[5]; [8]", "result": 5}, {"measurement": "Fold increase", "setting": "[5]; [9]", "result": 1}, {"measurement": "Mean number of revertants", "setting": "[5]; [9]", "result": 6}, {"measurement": "Fold increase", "setting": "[5]; [10]", "result": 1}, {"measurement": "Mean number of revertants", "setting": "[5]; [10]", "result": 6}, {"measurement": "Fold increase", "setting": "[5]; [11]", "result": 1}, {"measurement": "Mean number of revertants", "setting": "[5]; [11]", "result": 6}, {"measurement": "Fold increase", "setting": "[5]; [12]", "result": 1}, {"measurement": "Mean number of revertants", "setting": "[5]; [12]", "result": 6}, {"measurement": "Fold increase", "setting": "[5]; [13]", "result": 1}, {"measurement": "Mean number of revertants", "setting": "[5]; [13]", "result": 6}, {"measurement": "Fold increase", "setting": "[5]; [14]", "result": 1}, {"measurement": "Mean number of revertants", "setting": "[5]; [14]", "result": 6}, {"measurement": "Fold increase", "setting": "[5]; [15]", "result": 1}, {"measurement": "Mean number of revertants", "setting": "[5]; [15]", "result": 6}, {"measurement": "Fold increase", "setting": "[5]; [16]", "result": 1}, {"measurement": "Mean number of revertants", "setting": "[5]; [16]", "result": 5}, {"measurement": "IC50", "setting": "[6]", "result": 1040, "unit": "nM"}]}
